Assay results taken from US20230404969A1, “COMPOSITIONS AND METHOD FOR EFFECTIVE MANAGEMENT OF PERITONITIS” (priority 2022, published 2023).

What was measured:
[1] = tested on: Enterococcus faecalis (Gram positive); assay: Bacterial translocation from the gut into organs: E. faecalis; assay type: in vivo; settings: Withanone 2 mg/kg; positive/6 mice
Procedure: (§1) Peritoneal inflammation was induced by Zymosan A (Sigma Chemical) (Masashi et al. Zymosan, but Not Lipopolysaccharide, Triggers Severe and Progressive Peritoneal Injury Accompanied by complement Activation in a Rat Peritonitis Model) was prepared freshly in sterile, 0.9% w/v saline, and 0.5 ml was injected i.p. from day 0 to Day 5. The lymphocyte population in the peripheral blood was determined with a flow cytometer. Cells were phenotyped by flow cytometry with the following primary antibodies: CD4 (FITC) and CD8 (PE). Cells were gated broadly on all live lymphocyte cells, with only debris and multiple cell clusters being excluded. Analysis of mean fluorescence intensity was done and percentage cell population was evaluated. The test drugs were administered for 30 days after the induction of peritonitis. On 36th day the peritoneal cavity was lavaged with 1.5 ml saline, and after a 30-s gentle manual massage, 0.5 ml exudate was retrieved, centrifuged at 3000 g for 3 min, and frozen at […] prior to cytokine and chemotactic-factor assessment.
Intestine serves as a barrier in preventing gut bacteria and/or endotoxin from spreading to organs and tissues. It is also known that bacterial translocation occurs in critically ill or immunocompromised patients, and the physical disruption of mucosal barrier in vivo rodent models seem to be a key factor Tor translocation (Deitch et al. Effect of hemorrhagic shock on bacterial translocation, intestinal morphology, and intestinal permeability in conventional and antibiotic-decontaminated rats; Critical Care Medicine; 1990 18(5)). Bacterial translocation from the gut into the peritoneal cavity and organs was analyzed. The mesenteric lymph nodes, liver, and spleen of mice, study group of 30, were removed using sterile instruments. The organs were then homogenized in 1 ml of sterile cooked meat broth and 50 μl of organ homogenate was spread on blood agar plates to detect aerobic bacteria and Eosin Methylene blue agar plates to detect specially for E. coli. These plates were then incubated at 37° C. for 2 days. […]

C3b = assay: Complement activation product C3b in serum (ELISA), chronic zymosan peritonitis; assay type: in vivo, mouse; settings: 2 mg/kg
Procedure: as §1
Complement activation is a system of more than 30 proteins in the plasma and on cell surfaces. The activation takes place by three pathways, classical, lectin, and alternative. […]

## CC1=C(C)C(=O)O[C@@H]([C@@H](C)[C@@]2(O)CC[C@H]3[C@@H]4[C@@H]5O[C@@H]5[C@@]5(O)CC=CC(=O)[C@]5(C)[C@H]4CC[C@@]32C)C1 [Withanone]
[1]
  Bacterial translocation, Liver, E. faecalis: 1/6
  Bacterial translocation, Mesenteric Lymph Nodes, E. faecalis: 2/6
  Bacterial translocation, Spleen, E. faecalis: 0/6
C3b
  Inhibition of complement activation product C3b compared to the Zymosan control: 44%
